The conditions of series [1]: concentrate with 70% ethanol, 25% dimethlyacetamide, 5% polysorbate 80; mainly induced by dimethlyacetamide; WO2015013448A1; cited from earlier work.
A short description of series [2]: Solubility of TH-302 by the saturated solution method (HPLC, external standard). The class given is physicochemical. On the procedure:
The solubility is measured in an experiment by the saturated solution method; that is, the solid TH-302 was directly charged into the solvent until insoluble matter or turbidity appears. After clarification for a period of time, the solution was directly filtered. The clarified filtrate was taken directly for determination of the concentration of TH-302. The resulting concentration is exactly the solubility of TH-302 in this solvent system. Please refer to Tables 1, 2, and 3 for specific solubility data.
For the method for measuring the concentration of TH-302 (mg/ml), please refer to the HPLC method described in the patent WO2008083101A1 owned by Threshold Pharmaceuticals Inc. (see Example 2. An Ethanol Formulation of TH302, for details); and the external standard method was used for quantification.

Series [3] is described as follows: Saturated solubility of the drug in D5W solution (strong shaking). The format is physicochemical. As to conditions: left to stand at room temperature for 24 hours. On the procedure: The TH-302 sample was weighed accurately in an amount of about 60 mg, placed in a transparent vial, and added with 6 ml of dextrose 5% in water (D5W). The resulting solution was shaked vigorously for 2 minutes to obtain a solubility-stock solution. It was observed that the solubility-stock solution contained insoluble substances. Thus, the solubility-preserving solution was filtered and then became clear. […] This value was exactly the saturated solubility of the drug in D5W solution.

In the case of `Cn1c(COP(=O)(NCCBr)NCCBr)cnc1[N+](=O)[O-]` [TH-302], the TH-302 administration reactions result in series [1] is “lip swelling and urticaria”. Further, the Solubility in series [2] (1% Tween 80 aqueous solution (volume ratio)) came out at 7210 µg/mL; in series [2] (95% tert-butanol/5% ethanol (volume ratio), TH-302 purchased commercially), 9980 µg/mL. Further, in series [3], the “Appearance of the filtered filtrate” value is recorded as “still clear”.

The values are drawn from patent US20240366640A1, “LYOPHILIZED FORMULATION SOLUTION AND LYOPHILIZED FORMULATION, AND METHOD AND USE THEREOF” (ASCENTAWITS PHARMACEUTICALS, LTD., priority 2021, published 2024).
